From patent publication US20080280326A1, “Novel Gonadotropin-Releasing Hormone, Precursor Peptides Thereof and Genes Encoding the Same” (SUNTORY LIMITED, priority 2000, published 2008)
Square brackets hold non-standard residues; d marks the D form. pGlu = O=C1CC[C@@H](C(=O)O)N1

Columns and labels:
[1] = system: Cells taken from the pituitary glands of quails; assay: Release of luteinizing hormone (LH) from cultured quail pituitary gland cells, radioimmunoassay; format: cell-based; conditions: final concentrations 0, 10^-9 to 10^-5 M, 4 hrs incubation, one-way ANOVA (FIG. 4)
Procedure: Cells taken from the pituitary glands of quails were inoculated onto a 24-well plate at 7.5×10^5 cells/well (substantially equivalent to two animals). The cells were then incubated for 3 days in a culture medium containing fetal calf serum. The cells were incubated for another 24 hrs in 1 ml serum-free medium. After the incubation period, the peptide solution was added to the culture medium to final concentrations of 0, 10^−9, 10^−8, 10^−7, 10^−6 and 10^−5 M, respectively, and the cultures were further incubated for 4 hrs. The supernatant was then collected from each culture. For each concentration, 5 samples were subjected to radioimmunoassay and measurements were taken. The data were statistically analyzed by one-way analysis of variance (ANOVA).

[2] = system: heart of O. vulgaris; assay: Measurement of the heart beat activity of O. vulgaris (isolated cannulated heart); parameters: species or system Octopus vulgaris; conditions: for variation of the heart beat of O. vulgaris (heart rate and amplitude): 10^-5 M added to the chamber (FIG. 3)
Procedure: The heart beat activity of O. vulgaris was measured according to the method proposed by Morishita, et al. (Fumihiro Morishita, Biochem. Biophys. Res. Commun., 240, 354-358 (1997)). Specifically, the heart was taken from O. vulgaris and the atria were removed from the heart. A cannula was inserted from each atrium into the ventricle and was at the same time connected to a chamber (80 ml in volume) by tying with a cotton thread. The aorta was pinched to prevent leakage of liquid from the ventricle and was connected to a tension transducer. This completed preparation of the heart to serve as a specimen for the assay. Each cannula was adjusted to permit a 1 to 2 ml/min flow of artificial sea water (containing 0.1% glucose). Each of the analytes to be assayed was dissolved in 1 ml of the same artificial sea-water, and the resulting solution was injected into the heart through the cannulae. The variation of the heart beat was recorded.
As test compounds, Compound (1) isolated from the brains of O. vulgaris, Compound (2), and cGnRH-II, a vertebrate GnRH isolated from chickens and used to derive Compound (2) therefrom, were used.

Row | Substance | release of luteinizing hormone (LH) [1] | variation of the heart beat of O. vulgaris ([2]; amount of Compound (1) corresponding to one specimen of O. vulgaris added to the chamber (FIG. 2)) | cardioactivity toward the heart beat of O. vulgaris, synthetic versus naturally-occurring peptide ([2]; purified synthetic peptide of Example 3) | variation of the heart beat of O. vulgaris (heart rate and amplitude) [2]
1 | <Glu-Asn-Tyr-His-Phe-Ser-Asn-Gly-Trp-His-Pro-Gly-NH2 ([pGlu]NYHFSNGWHPG-NH2; listed as Octopus vulgaris) [Compound (1)] | significantly increased the release of luteinizing hormone (LH) | enhanced the heart beat of O. vulgaris | same cardioactivity toward the heart beat of O. vulgaris as did the naturally-occurring peptide | –
2 | <Glu-Asn-Tyr-His-Trp-Ser-His-Gly-Trp-Tyr-Pro-Gly-NH2 ([pGlu]NYHWSHGWYPG-NH2; SMILES NC(=O)CNC(=O)[C@@H]1CCCN1C(=O)[C@H](Cc1ccc(O)cc1)NC(=O)[C@H](Cc1c[nH]c2ccccc12)NC(=O)CNC(=O)[C@H](Cc1c[nH]cn1)NC(=O)[C@H](CO)NC(=O)[C@H](Cc1c[nH]c2ccccc12)NC(=O)[C@H](Cc1c[nH]cn1)NC(=O)[C@H](Cc1ccc(O)cc1)NC(=O)[C@H](CC(N)=O)NC(=O)[C@@H]1CCC(=O)N1) [Compound (2), cGnRH-II with Asn-Tyr inserted between the first <Glu and the second His residues] | – | – | – | enhanced the heart beat of O. vulgaris by increasing both the heart rate and the amplitude of the heart beat
3 | <Glu-His-Phe-Ser-Asn-Gly-Trp-His-Pro-Gly-NH2 ([pGlu]HFSNGWHPG-NH2; SMILES NC(=O)CNC(=O)[C@@H]1CCCN1C(=O)[C@H](Cc1c[nH]cn1)NC(=O)[C@H](Cc1c[nH]c2ccccc12)NC(=O)CNC(=O)[C@H](CC(N)=O)NC(=O)[C@H](CO)NC(=O)[C@H](Cc1ccccc1)NC(=O)[C@H](Cc1c[nH]cn1)NC(=O)[C@@H]1CCC(=O)N1; listed as Octopus vulgaris) [Compound (3), decapeptide obtained by deletion of amino acids 2 and 3 from the N-terminal region of Compound (1)] | increase the release of luteinizing hormone (LH) | – | – | –
4 | cGnRH-II: chicken-II-type GnRH, a vertebrate decapeptide GnRH isolated from chickens, used to derive Compound (2) ([pGlu]HWSHGWYPG-NH2; ends and bridges not checked; UniProt P68072 1-10, looked up) [reference compound] | – | – | – | did not have any effect on the heart rate or the amplitude of the heart beat of O. vulgaris
